SMILES strings stand for the structures.

The values that follow come from US7585867B2, “Substituted thiazolo[4,5-d]pyrimidin-2(3H)-one” (AstraZeneca AB, priority 2002, dated 2009).

Data set [1] has as its target T1, CXCR2 receptor in human neutrophils (Homo sapiens, UniProt P25025).
T1 construct: Human nutrophils were prepared from EDTA-treated peripheral blood; endogenous in cells; host or cells: human neutrophils from peripheral blood
T1 sequence (P25025 1-360): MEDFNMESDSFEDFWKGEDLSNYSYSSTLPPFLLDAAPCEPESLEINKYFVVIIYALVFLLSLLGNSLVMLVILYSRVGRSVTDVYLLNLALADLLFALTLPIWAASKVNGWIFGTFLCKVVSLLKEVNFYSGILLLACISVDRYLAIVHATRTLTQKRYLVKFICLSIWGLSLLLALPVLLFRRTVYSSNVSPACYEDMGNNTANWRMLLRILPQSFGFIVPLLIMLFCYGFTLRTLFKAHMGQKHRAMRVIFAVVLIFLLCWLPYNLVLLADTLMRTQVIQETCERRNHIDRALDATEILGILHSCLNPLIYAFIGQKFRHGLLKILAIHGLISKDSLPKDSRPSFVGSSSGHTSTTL
The data set can be described thus: Intracellular calcium mobilisation assay (GROα, fluo-3, FLIPR). The following applies: A50 concentration of GROα, fluo-3 fluorescence. It is filed as cell-based. As to the method: Intracellular Calcium Mobilisation Assay
Human nutrophils were prepared from EDTA-treated peripheral blood, as previously described (Baly et al. (1997) Methods in Enzymology 287 pp 70-72), in storage buffer [Tyrode's salt solution (137 mM NaCl, 2.7 mM KCl, 0.4 mM NaH2PO4) supplemented with 5.7 mM glucose and 10 mM HEPES (pH 7.4)].
The chemokine GROα (human, recombinant) was purchased from R&D Systems (Abingdon, U.K.). All other chemicals were of analytical grade. Changes in intracellular free calcium were measured fluorometrically by loading neutrophils with the calcium sensitive fluorescent dye, fluo-3, as described previously (Merritt et al. (1990) Biochem. J. 269, pp513-519). Cells were loaded for 1 hour at 37° C. in loading buffer (storage buffer with 0.1% (w/v) gelatin) containing 5 μM fluo-3 AM ester, washed with loading buffer and then resuspended in Tyrode's salt solution supplemented with 5.7 mM glucose, 0.1% (w/v) bovine serum albumin (BSA), 1.8 mM CaCl2 and 1 mM MgCl2. […]
A compound of formula (I) according to the Examples was pre-dissolved in DMSO and added to a final concentration of 0.1% (v/v) DMSO. Assays were initiated by the addition of an A50 concentration of GROα and the transient increase in fluo-3 fluorescence (λEx=490 nm and λEm=520 nm) monitored using a FLIPR (Fluorometric Imaging Plate Reader, Molecular Devices, Sunnyvale, U.S.A.). […]
Background: A change in cytosolic calcium serves as a functional read-out for many receptors and channels.

The target of data set [2] is T2, hrCXCR2 (Homo sapiens, UniProt P25025).
T2 construct: expressed in transfected cells; host or cells: HEK 293 cells (ECACC No. 85120602), membrane preparation
T2 sequence (P25025 1-360): T1 sequence (P25025 1-360)
The data set can be described thus: Ligand binding assay ([125I]IL-8, HEK 293 membranes). The following applies: displacement of ~50 pM [125I]IL-8 from membranes of HEK 293 cells expressing hrCXCR2, 1.5 hours at room temperature. An excerpt: [^125I]IL-8 (human, recombinant) was purchased from Amersham, U.K. with a specific activity of 2,000 Ci/mmol. All other chemicals were of analytical grade. High levels of hrCXCR2 were expressed in HEK 293 cells (human embryo kidney 293 cells ECACC No. 85120602) (Lee et al. (1992) J. Biol. Chem. 267 pp 16283-16291). hrCXC2 cDNA was amplified and cloned from human neutrophil mRNA. The DNA was cloned into PCRScript (Stratagene) and clones were identified using DNA. The coding sequence was sub-cloned into the eukaryotic expression vector RcCMV (Invitrogen). Plasmid DNA was prepared using Quiagen Megaprep 2500 and transfected into HEK 293 cells using Lipofectamine reagent (Gibco BRL). Cells of the highest expressing clone were harvested in phosphate-buffered saline containing 0.2%(w/v) ethylenediaminetetraacetic acid (EDTA) and centrifuged (200 g, 5 min.). The cell pellet was resuspended in ice cold homogenisation buffer [10 mM HEPES (pH 7.4), 1 mM dithiothreitol, 1 mM EDTA and a panel of protease inhibitors (1 mM phenyl methyl sulphonyl fluoride, 2 μg/ml soybean trypsin inhibitor, 3 mM benzamidine, 0.5 μg/ml leupeptin and 100 μg/ml bacitracin)] and the cells left to swell for 10 minutes. […] The backing plate was removed from the MultiScreen plate assembly, the filters dried at room temperature, punched out and then counted on a Cobra γ-counter.

The term melting point denotes the temperature of the solid-liquid transition. Regarding `CC(CO)(CO)Nc1nc(SCc2cccc(F)c2F)nc2[nH]c(=O)sc12.[Na]`, the melting point is 238 °C (dec.).

A word on the IC50: it is the concentration at which inhibition is half-maximal. Take `CC(CO)(CO)Nc1nc(SCc2cccc(F)c2F)nc2[nH]c(=O)sc12` [compound of formula (I), 5-[[(2,3-Difluorophenyl)methyl]thio]-7-[[2-hydroxy-1-(hydroxymethyl) 1 methylethyl]amino]-thiazolo[4,5-d]pyrimidin-2(3H)-one]: the melting point is 230 to 233 °C. Further, the “antagonism of GROα-induced intracellular calcium increase” value in data set [1] is “antagonist”. The concentration for half-maximal inhibition (IC50) in data set [2] was less than 10 µM.
